Assay results from patent EP0582261A1, “Cephalosporin compounds and processes for the preparation thereof” (LUCKY LTD., priority 1992, dated 1994).

What was measured:
Experiment in all cases: MIC, two-fold dilution method on Müller-Hinton agar
Assay type in all cases: cell-based
Settings in all cases: incubated at 37°C for 20 hours
[1] = tested on: Serratia marcescens ATCC 27117
Method: (§1) The same procedures as described in Example 163 were repeated using 7-amino-1,8-dimethyl[1,3]imidazo[1,2-c] pyrimidine-5-thione prepared in Preparation Example 36 in place of 7-amino-1-methyl[1,3]imidazo[1,2-c]pyrimidine-5-thione to yield 190mg and 180mg of the title compound(a) and (b), respectively, as white solids.
(§2) These MIC values were taken by employing a two-fold dilution method: that is, two-fold serial dilutions of each of the test compounds were made and dispersed in a Müller-Hinton agar medium; 2µl of the standard test strain which had the 10⁷ CFU(Colony Forming Unit) per ml was inoculated on the medium; and these were incubated at 37°C for 20 hours.

[2] = tested on: Citrobacter freundii ATCC 8090
Method: as §1, §2

[3] = tested on: Escherichia coli ATCC 25922
Method: as §1, §2

[4] = tested on: Morganella morganii ATCC 8076h
Method: as §1, §2

[5] = tested on: Klebsiella pneumoniae ATCC 10031
Method: as §1, §2

[6] = tested on: Proteus mirabilis ATCC 25933
Method: as §1, §2

[7] = tested on: Enterobacter aerogenes ATCC 29751
Method: as §1, §2

[8] = tested on: Shigella flexneri ATCC 11836
Method: as §1, §2

[9] = tested on: Staphylococcus epidermidis ATCC 12228
Method: as §1, §2

[10] = tested on: Staphylococcus aureus ATCC 10537
Method: as §1, §2

[11] = tested on: Enterobacter cloacae ATCC 27508
Method: as §1, §2

[12] = tested on: Streptococcus faecalis ATCC 29212
Method: as §1, §2

[13] = tested on: Micrococcus luteus ATCC 9341
Method: as §1, §2

[14] = tested on: Escherichia coli ATCC 10536
Method: as §1, §2

[15] = tested on: Staphylococcus aureus ATCC 6538p
Method: as §1, §2

[16] = tested on: Pseudomonas aeruginosa ATCC 25619
Method: as §1, §2

[17] = tested on: Providencia rettgeri ATCC 9250
Method: as §1, §2

[18] = tested on: Salmonella typhimurium ATCC 14028
Method: as §1, §2

[19] = tested on: Pseudomonas aeruginosa ATCC 27853
Method: as §1, §2

[20] = tested on: Pseudomonas aeruginosa ATCC 10145
Method: as §1, §2

[21] = tested on: Bacillus megaterium ATCC 9885
Method: as §1, §2

[22] = tested on: Bacillus cereus ATCC 11778
Method: as §1, §2

[23] = tested on: Shigella sonnei ATCC 11060
Method: as §1, §2

[24] = tested on: Proteus vulgaris ATCC 6059
Method: as §1, §2

[25] = tested on: Acinetobacter calcoaceticus ATCC 15473
Method: as §1, §2

| Substance | MIC values against the standard strains [1] | MIC values against the standard strains [2] | MIC values against the standard strains [3] | MIC values against the standard strains [4] | MIC values against the standard strains [5] | MIC values against the standard strains [6] | MIC values against the standard strains [7] | MIC values against the standard strains [8] | MIC values against the standard strains [9] | MIC values against the standard strains [10] | MIC values against the standard strains [11] | MIC values against the standard strains [12] | MIC values against the standard strains [13] | MIC values against the standard strains [14] | MIC values against the standard strains [15] | MIC values against the standard strains [16] | MIC values against the standard strains [17] | MIC values against the standard strains [18] | MIC values against the standard strains [19] | MIC values against the standard strains [20] | other results |
| --- | --- | --- | --- | --- | --- | --- | --- | --- | --- | --- | --- | --- | --- | --- | --- | --- | --- | --- | --- | --- | --- |
| 7-[(Z)-2-(2-aminothiazol-4-yl)-2-(1-carboxycyclopentoxyimino)acetamido]-3-(2,7-diamino-1-methyl [1,2,4]triazolo[1,5-c]pyrimidinium-5-yl)thiomethyl-3-cephem-4-carboxylate [Exp. 84] | 0.13 µg/mL | 0.063 µg/mL | 0.063 µg/mL | ≤0.008 µg/mL | 0.063 µg/mL | 0.063 µg/mL | 0.25 µg/mL | 0.063 µg/mL | 0.5 µg/mL | 0.25 µg/mL | ≤0.008 µg/mL | 32 µg/mL | 0.016 µg/mL | 0.063 µg/mL | 0.25 µg/mL | 1 µg/mL | ≤0.008 µg/mL | 0.13 µg/mL | 1 µg/mL | 2 µg/mL | MIC values against the standard strains [21]: 0.25 µg/mL; MIC values against the standard strains [22]: 32 µg/mL; MIC values against the standard strains [23]: 0.13 µg/mL; MIC values against the standard strains [24]: 0.063 µg/mL; MIC values against the standard strains [25]: 2 µg/mL |
| 7-[(Z)-2-(2-aminothiazol-4-yl)-2-(2-carboxyprop-2-oxyimino)acetamido]-3-(7-amino-1-methyl [1,2,4]triazolo[1,5-c]pyrimidinium-5-yl)thiomethyl-3-cephem-4-carboxylate [Exp. 1] | 0.25 µg/mL | 0.13 µg/mL | 0.13 µg/mL | ≤0.008 µg/mL | 0.063 µg/mL | 0.13 µg/mL | 1 µg/mL | 0.031 µg/mL | 1 µg/mL | 4 µg/mL | 0.016 µg/mL | >128 µg/mL | 0.13 µg/mL | 0.063 µg/mL | 4 µg/mL | 1 µg/mL | ≤0.008 µg/mL | 0.25 µg/mL | 1 µg/mL | 2 µg/mL | MIC values against the standard strains [21]: 0.25 µg/mL; MIC values against the standard strains [22]: 128 µg/mL; MIC values against the standard strains [23]: 0.13 µg/mL; MIC values against the standard strains [24]: 0.063 µg/mL; MIC values against the standard strains [25]: 4 µg/mL |
| 7-[(Z)-2-(2-aminothiazol-4-yl)-2-((R)-1-carboxyprop-1-oxyimino)acetamido]-3-(2,7-diamino-1-methyl[1,2,4]triazolo[1,5-c]pyrimidinium-5-yl)thiomethyl-3-cephem-4-carboxylate [Exp. 88] | 0.25 µg/mL | 0.13 µg/mL | 0.063 µg/mL | ≤0.008 µg/mL | ≤0.008 µg/mL | 0.13 µg/mL | 0.13 µg/mL | 0.031 µg/mL | 0.031 µg/mL | 0.13 µg/mL | ≤0.008 µg/mL | 8 µg/mL | ≤0.008 µg/mL | 0.13 µg/mL | 0.13 µg/mL | 0.5 µg/mL | ≤0.008 µg/mL | 0.13 µg/mL | 1 µg/mL | 1 µg/mL | MIC values against the standard strains [21]: 0.031 µg/mL; MIC values against the standard strains [22]: 8 µg/mL; MIC values against the standard strains [23]: 0.063 µg/mL; MIC values against the standard strains [24]: 0.063 µg/mL; MIC values against the standard strains [25]: 1 µg/mL |
| 7-[(Z)-2-(2-aminothiazol-4-yl)-2-((R)-1-carboxyprop-1-oxyimino)acetamido]-3-(7-amino-1-methyl [1,2,4]triazolo[1,5-c]pyrimidinium-5-yl)thiomethyl-3-cephem-4-carboxylate [Exp. 86] | 0.25 µg/mL | 0.13 µg/mL | 0.063 µg/mL | ≤0.008 µg/mL | ≤0.008 µg/mL | 0.13 µg/mL | 0.25 µg/mL | 0.031 µg/mL | 0.25 µg/mL | 0.13 µg/mL | ≤0.008 µg/mL | 16 µg/mL | ≤0.008 µg/mL | 0.13 µg/mL | 0.13 µg/mL | 1 µg/mL | ≤0.008 µg/mL | 0.25 µg/mL | 1 µg/mL | 2 µg/mL | MIC values against the standard strains [21]: 0.031 µg/mL; MIC values against the standard strains [22]: 16 µg/mL; MIC values against the standard strains [23]: 0.063 µg/mL; MIC values against the standard strains [24]: 0.13 µg/mL; MIC values against the standard strains [25]: 2 µg/mL |
| 7-[(Z)-2-(2-aminothiazol-4-yl)-2-((S-1-carboxyeth-1-oxyimino)acetamido]-3-(7-amino-1-methyl [1,2,4]triazolo[1,5-c]pyrimidinium-5-yl)thiomethyl-3-cephem-4-carboxylate [Exp. 22(S)] | 0.13 µg/mL | 0.063 µg/mL | 0.13 µg/mL | ≤0.008 µg/mL | 0.031 µg/mL | 0.25 µg/mL | 0.5 µg/mL | 0.13 µg/mL | 1 µg/mL | 2 µg/mL | 0.016 µg/mL | >128 µg/mL | 0.13 µg/mL | 0.031 µg/mL | 4 µg/mL | 1 µg/mL | ≤0.008 µg/mL | 0.25 µg/mL | 2 µg/mL | 2 µg/mL | MIC values against the standard strains [21]: 0.25 µg/mL; MIC values against the standard strains [22]: 128 µg/mL; MIC values against the standard strains [23]: 0.063 µg/mL; MIC values against the standard strains [24]: 0.31 µg/mL; MIC values against the standard strains [25]: 4 µg/mL |
